We go through 43 compounds from ChEMBL document CHEMBL3272144, “Application of the Free-Wilson technique to structurally related series of homologues. Quantitative structure-activity relationship studies of narcotic analgetics” (1977).

The species named for the test is Mus musculus. In words: Analgesic activity in mouse by hot-plate method. The test is classed as functional. On the technique in general: Hot-plate and tail-flick tests time the reaction to a heat stimulus.
For `CC(=O)Oc1ccc2c(c1)[C@@]1(C)CCN(C)C(C2)[C@]1(C)OC(C)=O` (mixture of isomers), the “log(1/C)” value was 2.66.
Consider `CCCC(=O)Oc1ccc2c(c1)[C@@]1(C)CCN(C)C(C2)C1` (mixture of isomers), for which the “log(1/C)” value turned out to be 1.92.
As to `CC[C@@]12CCN(C)C(Cc3ccc(O)cc31)C2` (stereo in doubt; 20), the “log(1/C)” value is on record as 2.62.
To `CC(=O)Oc1ccc2c(c1)[C@@]1(C)CCN(C)C(C2)[C@@H]1C` (mixture of isomers) belongs 2.72; to `CC[C@@H]1C2Cc3ccc(O)cc3[C@@]1(C)CCN2C` (mixture of isomers), 3.07; to `CN1CC[C@@]2(C)CC1Cc1ccccc12` (mixture of isomers), 1.33.
To `CC(=O)Oc1ccc2c(c1)[C@@]1(C)CCN(CCC(=O)c3ccccc3)C(C2)[C@@H]1C` (mixture of isomers) belongs 2.49; to `C=CC#CCN1CC[C@]2(CC)c3cc(O)ccc3CC1[C@@H]2CC` (stereo in doubt; 90), 1.79; to `CCC[C@@]12CCN(C)C(Cc3ccc(O)cc31)[C@H]2C` (mixture of isomers), 3.45.
To `C[C@H]1[C@H]2Cc3ccc(O)cc3[C@@]1(C)CCN2CC1CC1` (racemic) belongs 1.37; to `CCC(=O)O[C@@]12CCN(C)C(Cc3ccccc31)C2` (mixture of isomers), 1.43; to `CCC[C@@]12CCN(C)C(Cc3ccc(O)cc31)[C@@H]2C` (stereo in doubt; 94), 1.38.
For `CN1CC[C@@H]2c3cc(O)ccc3CC1[C@H]2CO` (mixture of isomers), the “log(1/C)” value is 1.62.
To `C[C@@H]1C2Cc3ccc(O)cc3[C@@]1(C)CCN2C` (stereo in doubt; 9) belongs 3.22.
For `CCC[C@@]12CCN(CCc3ccccc3)C(Cc3ccc(O)cc31)[C@@H]2C` (mixture of isomers) the value was 2.92.
For the compound `CC(=O)O[C@H]1C2Cc3ccccc3[C@@]1(C)CCN2C` (mixture of isomers), the “log(1/C)” value turned out to be 1.37.
For `C[C@H]1C2Cc3ccc(O)cc3[C@@]1(C)CCN2CCc1cccs1` (mixture of isomers) the value was 4.04; for `CC[C@H]1C2Cc3ccc(O)cc3[C@@]1(CC)CCN2C` (stereo in doubt; 93), 1.51; for `CN1CC[C@@]2(C)CC1Cc1ccc(O)cc12` (stereo in doubt; 98), 1.04.
As to `CC[C@@]1(O)C2Cc3ccc(OC)cc3[C@@]1(C)CCN2C` (mixture of isomers), the “log(1/C)” value was 1.87.
For `C[C@@H]1C2Cc3ccccc3[C@@]1(C)CCN2C` (mixture of isomers) the value was 1.82; for `CCCC[C@@]12CCN(C)C(Cc3ccc(O)cc31)C2` (mixture of isomers), 2.17.
For `CC[C@H]1C2Cc3ccc(OC)cc3[C@@]1(CC)CCN2C` (stereo in doubt; 91) the value was 1.62; for `CN1CC[C@@]2(C)CC1Cc1ccc(O)cc12` (stereo in doubt; 31), 2.16; for `CC[C@H]1C2Cc3ccc(O)cc3[C@@]1(C)CCN2C` (stereo in doubt; 21), 2.62.
To `COc1ccc2c(c1)[C@@]1(c3ccccc3)CCN(C)C(C2)[C@H]1C` belongs 2.14; to `COc1ccc2c(c1)[C@@]1(C)CCN(C)C(C2)[C@@H]1C`, 1.87; to `CCC[C@@]12CCN(C)C(Cc3ccccc31)[C@H]2C` (mixture of isomers), 1.76.
As for `COc1ccc2c(c1)[C@@]1(C)CCN(CCc3ccccc3)C(C2)[C@@H]1O` (mixture of isomers), the “log(1/C)” value is recorded as 1.58.
For `CN1CC[C@@]2(c3ccccc3)CC1Cc1ccccc12` (stereo in doubt; 44) the value was 1.77; for `CC(=O)Oc1ccc2c(c1)[C@@]1(C)CCN(CCc3ccccc3)C(C2)[C@@H]1C` (mixture of isomers), 3.61.
For `C[C@H]1C2Cc3ccc(Cl)cc3[C@@]1(C)CCN2C` (mixture of isomers) the value was 0.83; for `CN1CC[C@]2(C)c3cc(O)ccc3CC1[C@@H]2O` (mixture of isomers), 0.9.
To `CN1CC[C@@]2(c3ccccc3)CC1Cc1ccccc12` (stereo in doubt; 89) belongs 1.87; to `CC[C@@]12CCN(C)C(Cc3ccc(O)cc31)C2` (stereo in doubt; 99), 1.03.
Consider `CC[C@@]12CCN(C)C(Cc3ccc(OC(C)=O)cc31)[C@]2(C)OC(C)=O` (mixture of isomers), for which the “log(1/C)” value is 2.82.
For `CC(=O)Oc1ccc2c(c1)[C@H]1CCN(C)C(C2)C1` (mixture of isomers), the “log(1/C)” value came to 1.57.
To `CC[C@H]1C2Cc3ccc(O)cc3[C@@]1(C)CCN2C` (stereo in doubt; 97) belongs 1.2.
For `CN1CC[C@]2(C)c3cc(O)ccc3CC1[C@@]2(C)O` (mixture of isomers) the value was 2.15; for `C[C@@]12CCNC(Cc3ccc(O)cc31)[C@H]2O` (mixture of isomers), 0.88.
For `C[C@@H]1C2Cc3ccc(O)cc3[C@@]1(c1ccccc1)CCN2C` (stereo in doubt; 8) the value was 3.26; for `C[C@H]1C2Cc3ccc(O)cc3[C@@]1(C)CCN2C`, 2.71; for `CN1CC[C@]2(C)c3ccccc3CC1[C@@H]2O` (mixture of isomers), 0.97.
